In ChEMBL document CHEMBL5154877, “Novel Sphingosine Kinase 1 Inhibitor Suppresses Growth of Solid Tumor and Inhibits the Lung Metastasis of Triple-Negative Breast Cancer” (J Med Chem, 2022):

Assays:
[1] = target: T1, Sphingosine kinase 2 (Homo sapiens, UniProt Q9NRA0)
T1 sequence (Q9NRA0 whole entry): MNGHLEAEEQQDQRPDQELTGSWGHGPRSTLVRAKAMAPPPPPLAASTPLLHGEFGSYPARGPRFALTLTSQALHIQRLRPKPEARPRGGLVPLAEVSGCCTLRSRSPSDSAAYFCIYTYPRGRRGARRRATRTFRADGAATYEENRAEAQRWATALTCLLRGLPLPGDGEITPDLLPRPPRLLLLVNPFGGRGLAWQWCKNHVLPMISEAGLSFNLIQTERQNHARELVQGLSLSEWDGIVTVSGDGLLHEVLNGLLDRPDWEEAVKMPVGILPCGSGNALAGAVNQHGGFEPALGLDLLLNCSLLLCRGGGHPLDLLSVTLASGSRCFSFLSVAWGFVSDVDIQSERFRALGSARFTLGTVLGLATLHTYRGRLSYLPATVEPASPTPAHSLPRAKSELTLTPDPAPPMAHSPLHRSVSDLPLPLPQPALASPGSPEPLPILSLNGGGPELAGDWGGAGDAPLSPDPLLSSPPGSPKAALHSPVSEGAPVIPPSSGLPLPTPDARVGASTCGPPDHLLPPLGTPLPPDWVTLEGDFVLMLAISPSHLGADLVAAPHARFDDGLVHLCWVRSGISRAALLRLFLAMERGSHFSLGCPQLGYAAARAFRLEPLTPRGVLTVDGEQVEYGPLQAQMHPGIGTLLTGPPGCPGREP

[2] = Oral bioavailability in mouse at 20 mg/kg; format: ADME, organism-based; conditions: in vivo
[3] = Half life in mouse at 20 mg/kg, po; format: ADME, organism-based; conditions: in vivo
[4] = Cmax in mouse at 20 mg/kg, po; format: ADME, organism-based; parameters: dose 20 mg/kg, route po; conditions: in vivo
[5] = Half life in mouse at 2 mg/kg, iv; format: ADME, organism-based; conditions: in vivo
[6] = Clearance in mouse at 2 mg/kg, iv; format: ADME, organism-based; conditions: in vivo
[7] = Tmax in mouse at 20 mg/kg, po; format: ADME, organism-based; conditions: in vivo
[8] = AUClast in mouse at 20 mg/kg, po; format: ADME, organism-based; parameters: time 0 - last, dose 20 mg/kg, route po; conditions: in vivo
[9] = AUClast in mouse at 2 mg/kg, iv; format: ADME, organism-based; parameters: time 0 - last, dose 2 mg/kg, route iv; conditions: in vivo

Row | SMILES | IC50 [1] | bioavailability [2] | half-life [3] | Cmax [4] | half-life [5] | clearance [6] | Tmax [7] | AUC(0-t) [8] | AUC(0-t) [9]
1 | Cc1cc(CS(=O)(=O)c2ccccc2)cc(OCc2ccc(CN3CCCCC3CO)cc2)c1 (stereo not given) | > 10 µM |  |  |  |  |  |  |  | 
2 | Cc1cc(CS(=O)(=O)C2CC2)cc(OCc2ccc(CN3CCC[C@@H]3CO)cc2)c1 | > 10 µM | 4.95% | 1.79 h | 83.6 ng/mL | 1.79 h | 164 mL/min/kg | 0.25 h | 100 ng·h/mL | 201 ng·h/mL
